Measurements taken from patent publication US20230365537A1, “POLO LIKE KINASE 4 INHIBITORS” (ORIC Pharmaceuticals, Inc., priority 2021, published 2023).

How the values were obtained:
human recombinant PLK4 = human recombinant PLK4 (Homo sapiens (Human), UniProt O00444); test: PLK4 Biochemical Assay (ADP-Glo); details: 0.5 nM PLK4, 8.0 µM ATP, 4.7 µM MBP, 6 hours at RT
Outline: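 Luminescent ADP-Glo detection quantified ADP production, with ATP depletion for 40 min and detection for 30 min at room temperature. Compound and PLK4 (1.0 nM stock addition) were preincubated 15 min in HEPES pH 7.5 buffer containing MgCl2, EGTA, DTT, Brij-35 and BSA. IC50 values were obtained by four-parameter nonlinear regression.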

[1] = biological target: human recombinant Aurora B (Homo sapiens (Human), UniProt Q96GD4); test: Aurora B Kinase Biochemical Assay (ADP-Glo); details: ratio of Aurora B IC50 to PLK4 IC50 (selectivity)
Outline: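 IC50 derived by four-parameter nonlinear fit of ADP-Glo luminescence (ADP produced). Compound was preincubated 15 min at RT with 20 nM recombinant human Aurora B, in 50 mM HEPES pH 7.5, 10 mM MgCl2, 1 mM EGTA, 1 mM DTT, 0.01% Brij-35/BSA.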

CHP-134 cells = test: CHP134 CellTiter-Glo (CTG) Assay; assay type: cell-based; details: Homo sapiens, CHP-134, 120 h, 5 days, viable cells by CellTiter-Glo
Outline: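 Nine-point 1:3 dilution series, diluted into growth media, added in quadruplicate to CHP-134 cells plated 16 h earlier at 200 cells/well.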

[2] = biological target: human recombinant Aurora A (Homo sapiens (Human), UniProt O14965); test: Aurora A Kinase Biochemical Assay (ADP-Glo); details: ratio of Aurora A IC50 to PLK4 IC50 (selectivity)
Chain of human recombinant Aurora A (O14965 whole entry): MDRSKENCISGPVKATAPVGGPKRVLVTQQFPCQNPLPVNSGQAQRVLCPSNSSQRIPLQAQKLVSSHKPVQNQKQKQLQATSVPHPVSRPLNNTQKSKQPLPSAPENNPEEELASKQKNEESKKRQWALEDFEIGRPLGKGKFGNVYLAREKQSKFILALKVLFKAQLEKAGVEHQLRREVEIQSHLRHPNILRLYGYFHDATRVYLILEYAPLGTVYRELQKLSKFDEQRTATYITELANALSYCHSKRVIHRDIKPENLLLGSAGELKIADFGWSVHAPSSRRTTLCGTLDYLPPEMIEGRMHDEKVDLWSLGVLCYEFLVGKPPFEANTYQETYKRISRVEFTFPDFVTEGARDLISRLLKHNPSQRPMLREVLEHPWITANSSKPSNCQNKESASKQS

Chain of human recombinant PLK4 (O00444 whole entry): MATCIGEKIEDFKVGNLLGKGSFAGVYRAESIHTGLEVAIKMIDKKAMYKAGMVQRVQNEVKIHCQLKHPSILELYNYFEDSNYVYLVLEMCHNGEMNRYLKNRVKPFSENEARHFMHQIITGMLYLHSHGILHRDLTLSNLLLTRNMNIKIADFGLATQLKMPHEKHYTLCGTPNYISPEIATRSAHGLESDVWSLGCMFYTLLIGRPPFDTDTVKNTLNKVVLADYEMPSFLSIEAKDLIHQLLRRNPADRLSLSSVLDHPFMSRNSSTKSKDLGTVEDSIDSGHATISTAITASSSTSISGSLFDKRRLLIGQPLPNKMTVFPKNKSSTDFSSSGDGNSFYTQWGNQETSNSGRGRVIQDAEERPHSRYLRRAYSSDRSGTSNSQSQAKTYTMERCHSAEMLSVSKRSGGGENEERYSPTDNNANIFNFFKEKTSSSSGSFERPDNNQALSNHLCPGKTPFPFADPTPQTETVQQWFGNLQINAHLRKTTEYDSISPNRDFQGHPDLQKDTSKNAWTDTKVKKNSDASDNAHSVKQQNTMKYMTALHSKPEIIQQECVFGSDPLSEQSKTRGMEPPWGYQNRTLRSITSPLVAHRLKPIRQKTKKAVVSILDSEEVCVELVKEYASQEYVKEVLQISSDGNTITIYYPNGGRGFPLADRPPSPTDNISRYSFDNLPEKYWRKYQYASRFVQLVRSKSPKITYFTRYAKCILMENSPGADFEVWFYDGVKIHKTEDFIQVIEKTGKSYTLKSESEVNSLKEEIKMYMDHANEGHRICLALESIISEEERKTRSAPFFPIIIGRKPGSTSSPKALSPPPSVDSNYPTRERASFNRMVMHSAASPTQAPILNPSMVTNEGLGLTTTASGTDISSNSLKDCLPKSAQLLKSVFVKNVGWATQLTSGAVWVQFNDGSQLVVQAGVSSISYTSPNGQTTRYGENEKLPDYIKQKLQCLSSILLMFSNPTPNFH
Chain of human recombinant Aurora B (Q96GD4 whole entry): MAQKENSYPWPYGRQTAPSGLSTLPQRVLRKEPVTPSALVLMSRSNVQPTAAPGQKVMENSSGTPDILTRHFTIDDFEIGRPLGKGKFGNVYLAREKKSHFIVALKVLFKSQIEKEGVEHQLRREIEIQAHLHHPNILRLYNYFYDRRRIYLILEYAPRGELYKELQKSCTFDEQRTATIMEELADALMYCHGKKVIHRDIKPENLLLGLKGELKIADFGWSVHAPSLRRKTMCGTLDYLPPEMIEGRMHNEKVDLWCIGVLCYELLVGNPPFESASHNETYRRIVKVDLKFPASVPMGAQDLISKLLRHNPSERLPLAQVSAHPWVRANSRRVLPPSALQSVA

SMILES	IC50 (human recombinant PLK4)	[Aurora B IC50 (nM)]/[PLK4 IC50 (nM)] [1]	[Aurora A IC50 (nM)]/[PLK4 IC50 (nM)] [2]	IC50 (CHP-134 cells)
COc1ccc2c(c1)[C@]1(C[C@H]1c1ccc3c(Nc4cc(C)ncc4OC)n[nH]c3c1)C(=O)N2 [Example 86, (1R,2S)-5′-methoxy-2-{3-[(5-methoxy-2-methylpyridin-4-yl)amino]-1H-indazol-6-yl}spiro[cyclopropane-1,3′-indol]-2′(1′H)-one]	21.2 nM	669.3396	1414.623	459 nM
COc1ccc2c(c1)[C@]1(C[C@H]1c1ccc3c(Nc4nc(C)ncc4OC)n[nH]c3c1)C(=O)N2 [Example 87, (1R,2S)-5′-methozy-2-{3-[(5-methoxy-2-methylpyrimidin-4-yl)amino]-1H-indazol-6-yl}spiro[cyclopropane-1,3′-indol]-2′(1′H)-one]	1.58 nM	133.9241	973.4177	235 nM
COc1ccc2c(c1)[C@]1(C[C@H]1c1ccc3c(Nc4cc(C)cnc4OC)n[nH]c3c1)C(=O)N2 [Example 89, (1R,2S)-5′-methoxy-2-{3-[(2-methoxy-5-methylpyridin-3-yl)amino]-1H-indazol-6-yl}spiro[cyclopropane-1,3′-indol]-2′(1′H)-one]	2.32 nM	314.3289	1736.729	10000 nM
COc1ccc2c(c1)[C@]1(C[C@H]1c1ccc3c(Nc4cc(C5CC5)nn4C)n[nH]c3c1)C(=O)N2 [Example 91, (1R,2S)-2-{3-[(3-cyclopropyl-1-methyl-1H-pyrazol-5-yl)amino]-1H-indazol-6-yl}-5′-methoxyspiro[cyclopropane-1,3′-indol]-2′(1′H)-one]	4.02 nM	79.87	436.427	3200 nM
COc1ccc2c(c1)[C@]1(C[C@H]1c1ccc3c(Nc4ncc(N5CCOCC5)nc4OC)n[nH]c3c1)C(=O)N2 [Example 94, (1R,2S)-5′-methoxy-2-(3-{[3-methoxy-5-(morpholin-4-yl)pyrazin-2-yl]amino}-1H-indazol-6-yl)spiro[cyclopropane-1,3′-indol]-2′(1′H)-one]	5.61 nM	41.732	533.856	4600 nM
COc1ccc2c(c1)[C@]1(C[C@H]1c1ccc3c(Nc4cc(C)ncc4Cl)n[nH]c3c1)C(=O)N2 [Example 96, (1R,2S)-2-{3-[(5-chloro-2-methylpyridin-4-yl)amino]-1H-indazol-6-yl}-5′-metboxyspiro[cyclopropane-l,3′-indol]-2′(1′H)-one]	11.3 nM	351.8943	511.3656	56.6 nM
COc1ccc2c(c1)[C@]1(C[C@H]1c1ccc3c(Nc4nc(N5CCOCC5)ncc4OC)n[nH]c3c1)C(=O)N2 [Example 97, (lR,2S)-5′-methoxy-2-(3-{[5-methoxy-2-(morpholin-4-yl)pyrimidin-4-yl]amino}-1H-indazol-6-yl)spiro[cyclopropane-1,3′-indol]-2′(1′H)-one]	1.14 nM	520.2809	309.2186	222 nM
COc1ccc2c(c1)[C@]1(C[C@H]1c1ccc3c(Nc4nc(C)ncc4Cl)n[nH]c3c1)C(=O)N2 [Example 98, (1R,2S)-2-{3-[(5-chloro-2-methylpyrimidin-4-yl)amino]-1H-indazol-6-yl)-5′-methoxyspiro[cyclopropane-1,3′-indol]-2′(1′H)-one]	7.55 nM	305.5335	787.0003	65.8 nM
CCN1C(=O)[C@@]2(C[C@H]2c2ccc3c(Nc4ncnc(N5CC(O)C5)c4Cl)n[nH]c3c2)c2cc(OC)ccc21 [Example 108, (1R,2S)-2-(3-{[5-chloro-6-(3-hydroxyazetidin-1-yl)pyrimidin-4-yl]amino}-1H-indazol-6-yl)-1′-ethyl-5′-methoxyspiro[cyclopropane-1,3′-indol]-2′(1′H)-one]	4.37 nM	230.6459	3889.143	1090 nM
COc1ccc2c(c1)[C@]1(C[C@H]1c1ccc3c(Nc4ncnc(N5CCOCC5)c4OC(F)F)n[nH]c3c1)C(=O)N2 [Example 109, (1R,2S)-2-(3-{[5-(difluoromethoxy)-6-(morpholin-4-yl)pyrimidin-4-yl]amino}-lH-indazol-6-yl)-5′-methoxyspiro[cyclopropane-1,3′-indol]-2′(1′H)-one]	6.76 nM	11070	50000	1870 nM
COc1ccc2c(c1)[C@]1(C[C@H]1c1ccc3c(Nc4nc(N5CC(O)C5)ncc4OC)n[nH]c3c1)C(=O)N2 [Example 114]	2.09 nM	811.5734	590.1482	10000 nM
COc1ccc2c(c1)[C@]1(C[C@H]1c1ccc3c(Nc4nc(C5CC5)ncc4Cl)n[nH]c3c1)C(=O)N2 [Example 116, (1R,2S)-2-(3-((5-chloro-2-cyclopropylpyrimidin-4-yl)amino)-1H-indazol-6-yl)-5′-methoxyspiro[cyclopropane-1,3′-indolin]-2′-one]	2.89 nM	483.7370	788.5813	134 nM

Further molecules by falling IC50 (human recombinant PLK4), results first:

IC50 (human recombinant PLK4)	[Aurora B IC50 (nM)]/[PLK4 IC50 (nM)] [1]	[Aurora A IC50 (nM)]/[PLK4 IC50 (nM)] [2]	SMILES	IC50 (CHP-134 cells)
11.3 nM	1002.648	1271.845	COc1ccc2c(c1)[C@]1(C[C@H]1c1ccc3c(Nc4cc(C(C)C)nnc4OC)n[nH]c3c1)C(=O)N2 [Example 101, (1R,2S)-5′-methoxy-2-(3-{[3-methoxy-6-(propan-2-yl)pyridazin-4-yl]amino}-1H-indazol-6-yl)spiro[cyclopropane-1,3′-indol]-2′(1′H)-one]	2290 nM
10.7 nM	231.7370	1888.2629	COc1ccc2c(c1)[C@]1(C[C@H]1c1ccc3c(Nc4ncnc(N5CCOCC5)c4OC)n[nH]c3c1)C(=O)N2C [Example 113, (1R,2S)-5′-methoxy-2-(3-{[5-methoxy-6-(morpholin-4-yl)pyrimidin-4-yl]amino}-1H-indazol-6-yl)-1′-methylspiro[cyclopropane-1,3′-indol]-2′(1′H)-one]	2520 nM
8.04 nM	186.3415	132.6035	COc1ccc2c(c1)[C@]1(C[C@H]1c1ccc3c(Nc4cncc(C5COC5)n4)n[nH]c3c1)C(=O)N2 [Example 115, (1R,2S)-5′-methoxy-2-(3-{[6-(oxetan-3-yl)pyrazin-2-yl]amino}-1H-indazol-6-yl)spiro[cyclopropane-1,3′-indol]-2′(1′H)-one]	3460 nM
5.8 nM	129.9724	155.05	COc1ccc2c(c1)[C@]1(C[C@H]1c1ccc3c(Nc4nc(N5CCOCC5)cnc4OC)n[nH]c3c1)C(=O)N2 [Example 99, (1R,2S)-5′-methoxy-2-(3-{[3-methoxy-6-(morpholin-4-yl)pyrazin-2-yl]amino)-1H-indazol-6-yl)spiro[cyclopropane-1,3′-indol]-2′(1′H)-one]	565 nM
5.7 nM	174.4215	1455.295	COc1ccc2c(c1)[C@]1(C[C@H]1c1ccc3c(Nc4ncnc(N5CC(O)C5)c4Cl)n[nH]c3c1)C(=O)N2C [Example 107, (1R,2S)-2-(3-{[5-chloro-6-(3-hydroxyazetidin-1-yl)pyrimidin-4-yl]amino}-1H-indazol-6-yl)-5′-methoxy-1′-methylspiro[cyclopropane-1,3′-indol]-2′(1′H)-one]	730 nM
2.67 nM	44.7979	1997.754	COc1ccc2c(c1)[C@]1(C[C@H]1c1ccc3c(Nc4nc(C)ccc4OC)n[nH]c3c1)C(=O)N2 [Example 88, (1R,2S)-5′-methoxy-2-{3-[(3-methoxy-6-methylpyridin-2-yl)amino]-1H-indazol-6-yl}spiro[cyclopropane-1,3′-indol]-2′(1′H)-one]	1810 nM
1.73 nM	230.4498	382.0069	COc1ccc2c(c1)[C@]1(C[C@H]1c1ccc3c(Nc4nc(C5COC5)cnc4OC)n[nH]c3c1)C(=O)N2 [Example 100, (1R,2S)-5′-methoxy-2-(3-{[3-methoxy-6-(oxetan-3-yl)pyrazin-2-yl]amino}-1H-indazol-6-yl)spiro[cyclopropane-1,3′-indol]-2′(l′H)-one]	567 nM
1.31 nM	54.26	2386.677	COc1ccc2c(c1)[C@]1(C[C@H]1c1ccc3c(Nc4ccnc(N5CCOCC5)c4OC)n[nH]c3c1)C(=O)N2 [Example 95, (1R,2S)-5′-methoxy-2-(3-{[3-methoxy-2-(morpholin-4-yl)pyridin-4-yl]amino}-1H-induzol-6-yl)spiro[cyclopropane-1,3′-indol]-2′(1′H)-one]	319 nM
